Measured values reported in patent publication US20110123617A1, “CLIOQUINOL FOR THE TREATMENT OF HEMATOLOGICAL MALIGNANCIES” (priority 2007, published 2011).
pIC50: −log10 of the molar value. Entries after “also recorded” stand apart in the source; their conditions may differ.

Tests used:
[1] = test system: proteasome in normal hematopoietic cells; assay: Proteasome activity in normal hematopoietic cells (PBSC); assay type: cell-based, human
Experimental: (§1) Proteasome activity of primary acute myeloid leukemia (AML) blasts or normal peripheral blood stem cells (PBSC) after twenty hours of treatment with clioquinol (CQ), or an equimolar concentration of […] and CuCl2 (Cu). After treatment, the preferential chymotrypsin-like substrate Suc-LLVY-AMC was added and the rate of free AMC was measured over time with a florescent spectrophotometric plate reader (excitation=380 nm, emission=460 nm). Cellular proteins were extracted from cells with lysis buffer (50 mM HEPES pH 7.5, 150 mM NaCl, 2 mM ATP, and 1% Triton X-100). The chymotrypsin-like activity of the proteasome was measured by incubating equal amounts of protein with the preferential chymotrypsin-like substrate Suc-LLVY-AMC in assay buffer (50 mM Tris-HCl, pH 7.5, 150 mM NaCl) for two hours. After incubation, […] and the rate of free AMC was measured over time with a florescent spectrophotometric plate reader (excitation=380 nm, emission=460 nm). The inventors examined the effect of clioquinol and copper on primary AML cells and normal hematopoietic cells. Primary AML were obtained from the peripheral blood of patients with AML. Normal hematopoietic stem cells (PBSC) were obtained from the peripheral blood of volunteers donating stem cells for allotransplant. […] After incubation, cell lysates were prepared and the enzymatic activity of the proteasome measured as above.

[2] = test system: proteasome in primary AML cells; assay: Proteasome activity in primary AML cells; assay type: cell-based, human
Experimental: as §1

[3] = test system: primary AML patient samples; assay: Cell viability (MTS assay), primary AML patient samples; assay type: cell-based, human
Experimental: (§2) Cell viability of leukemia, myeloma, solid tumor and primary cells forty-eight hours after clioquinol treatment by MTS assay. Cell viability was assessed with the CellTiter96® Aqueous Non-Radioactive Assay kit according to manufactures' instructions (Promega). Apoptosis was measured by flow cytometry to detect cell surface Annexin V expression and propidium iodide (PI) uptake (Biovision, Mountain View, Calif., USA) as previously described (20) The inventors tested the effects of clioquinol on the viability of acute leukemia (n=7), myeloma (n=14), and solid tumor (n=5) cell lines as well as primary AML samples (n=6) and primary normal hematopoietic cells (n=3). Forty-eight hours after incubation, clioquinol induced cell death in 6/7 AML, 12/14 myeloma, 0/5 solid tumor, […] and 0/3 normal hematopoietic cells with an IC50 <20 μM (FIG. 5). Of note, after oral administration of clioquinol, trough serum concentrations of 20 μM can be achieved in patients (32).

[4] = test system: chymotrypsin-like activity of the proteasome; assay: Proteasome activity in cell lysates (Suc-LLVY-AMC cleavage); assay type: biochemical; conditions: cell lysates from leukemia and myeloma cell lines
Experimental: A) Proteasome activity of MDAY-D2 and JJN3 cellular extracts after two hours of treatment with clioquinol (CQ), CuCl2 (Cu), or an equimolar concentration of CQ and Cu. After treatment, the preferential chymotrypsin-like substrate Suc-LLVY-AMC was added and the rate of free AMC was measured over time with a florescent spectrophotometric plate reader (excitation=380 nm, emission=460 nm). B) Proteasome activity of intact MDAY-D2 and JJN3 cells after two hours of treatment with clioquinol (CQ), CuCl2 (Cu), or an equimolar concentration of CQ and Cu. After treatment, the preferential chymotrypsin-like substrate Suc-LLVY-AMC was added and the rate of free AMC was measured over time with a florescent spectrophotometric plate reader (excitation=380 nm, emission=460 nm). […] The chymotrypsin-like activity of the proteasome was measured by incubating equal amounts of protein with the preferential chymotrypsin-like substrate Suc-LLVY-AMC in assay buffer (50 mM Tris-HCl, pH 7.5, 150 mM NaCl) for two hours. After incubation, […] and the rate of free AMC was measured over time with a florescent spectrophotometric plate reader (excitation=380 nm, emission=460 nm). […] The chymotrypsin-like activity of the proteasome was measured by monitoring the rate of cleavage of the fluorescent substrate Suc-LLVY-AMC.

[5] = test system: normal hematopoietic cells; assay: Cell viability (MTS assay), primary normal hematopoietic cells; assay type: cell-based, human; conditions: normal hematopoietic cells supplemented with copper
Experimental: as §2

K562 leukemia cells = assay: K562 leukemia xenograft; assay type: in vivo, mouse; conditions: 100 mg/kg for 5 of 7 days, subcutaneous K562
Source text: Similar results were obtained with a K562 leukemia xenograft.

MY5 cells = assay: Apoptosis by Annexin V and PI staining and flow cytometry; assay type: cell-based
Experimental: (TM) (20 μM). Apoptosis was measured by Annexin V and PI staining and flow cytometry. Cell viability was assessed with the CellTiter96® Aqueous Non-Radioactive Assay kit according to manufactures' instructions (Promega). Apoptosis was measured by flow cytometry to detect cell surface Annexin V expression and propidium iodide (PI) uptake (Biovision, Mountain View, Calif., USA) as previously described (20)

[6] = test system: MDAY-D2 murine leukemia cells
Experimental: DBA-2 mice were injected intraperitoneally with MDAY-D2 murine leukemia cells. Mice were then treated twice daily by oral gavage with clioquinol (100 mg/kg) dissolved in intralipid or intralipid control. Ten days after treatment, mice were sacrificed, the intraperitoneal tumor excised, and the weight and volume of the tumor measured.
MDAY-D2 leukemia cells were injected intraperitoneally into DBA2 mice. Mice were then treated twice daily with oral clioquinol (100 mg/kg) for 10 days. Ten days after treatment, mice were sacrificed and the weight and volume of the intraperitoneal tumor was measured (FIG. 7). […] K562 leukemia cells were injected subcutaneous into sublethally irradiated […] mice. The clioquinol treatment was initiated when tumors reached volumes of 200 mm^3 at which time mice were randomized to receive 100 mg/kg of clioquinol (treated group) or buffer control (untreated group) for 5 of 7 days. Caliper measurements were performed twice weekly to estimate tumor volume and differences compared between treated and untreated groups.

## Oc1c(I)cc(Cl)c2cccnc12 [clioquinol, 5-chloro-7-iodo-8-hydroxyquinoline]
[1]
  enzymatic activity of the proteasome: no effect; also recorded: no proteasomal inhibition was detected
[2]
  enzymatic activity of the proteasome: inhibited the proteasome
[3]; Homo sapiens, 6/7 primary AML patient samples, forty-eight hours, read-out: IC50 (cell death)
  pIC50: > 4.70
[3]; primary AML cells supplemented with copper
  potency of clioquinol: increased the potency of clioquinol
[4]
  rate of Suc-LLVY-AMC cleavage: inhibited the rate of Suc-LLVY-AMC cleavage
[5]
  potency of clioquinol: increased the potency of clioquinol
K562 leukemia cells
  tumor growth (tumor volume): delayed tumor growth
MY5 cells; copper supplemented in the medium (CuCl2 20 μM)
  clioquinol-induced cell death: enhanced the toxicity of clioquinol
MY5 cells; twenty-four hours
  viability of MY5 cells: reduces the viability of MY5 cells
MY5 cells; with copper chelator tetrathiomoylbdate (20 μM)
  clioquinol-induced cell death: abrogated clioquinol-induced cell death
[6]; 100 mg/kg oral twice daily for 10 days
  tumor progression (weight and volume of intraperitoneal tumor): delayed tumor progression
[6]; in vivo mouse model of leukemia
  tumor weight: dramatically reduces tumor weight
